Calls of active or inactive are those of the source. No cut-off for these calls is given here.
How the values were obtained:
[1] = molecular target: T1, Kappa-type opioid receptor (Homo sapiens, UniProt P41145); test: GPCRScan assay: inhibition of KOR; parameters: radioligand conc. used [nm] 0.6 – 1.2, parental cells stable HEK
[2] = GPCRScan assay: inhibition of GABA/PBR; parameters: species or system Rattus norvegicus; radioligand conc. used [nm] 0.3 – 2.0, parental cells brain tissue
[3] = molecular target: T2, Sigma intracellular receptor 2 (Homo sapiens, UniProt Q5BJF2); test: GPCRScan assay: inhibition of Sigma 2; parameters: radioligand conc. used [nm] 5.0, parental cells HEKT
T2 sequence (Q5BJF2 whole entry): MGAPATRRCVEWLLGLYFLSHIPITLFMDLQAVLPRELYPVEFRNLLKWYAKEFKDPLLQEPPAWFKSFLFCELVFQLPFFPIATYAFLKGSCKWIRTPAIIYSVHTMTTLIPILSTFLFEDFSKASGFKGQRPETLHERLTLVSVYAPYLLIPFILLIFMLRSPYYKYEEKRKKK

[4] = molecular target: T3, Sigma non-opioid intracellular receptor 1 (Homo sapiens, UniProt Q99720); test: GPCRScan assay: inhibition of Sigma 1; parameters: radioligand conc. used [nm] 4.0 – 5.0, parental cells HEKT
T3 sequence (Q99720 whole entry): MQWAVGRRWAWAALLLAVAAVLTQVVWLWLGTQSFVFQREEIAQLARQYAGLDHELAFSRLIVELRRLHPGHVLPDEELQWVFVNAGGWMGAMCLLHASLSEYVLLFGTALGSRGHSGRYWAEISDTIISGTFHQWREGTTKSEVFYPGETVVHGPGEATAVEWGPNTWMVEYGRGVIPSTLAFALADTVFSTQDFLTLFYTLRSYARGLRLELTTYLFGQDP

[5] = molecular target: C-C chemokine receptor type 1 (Homo sapiens, UniProt P32246); test: CCR1 cellular Ca2+-flux assay; type: functional
C-C chemokine receptor type 1, sequence (P32246 whole entry): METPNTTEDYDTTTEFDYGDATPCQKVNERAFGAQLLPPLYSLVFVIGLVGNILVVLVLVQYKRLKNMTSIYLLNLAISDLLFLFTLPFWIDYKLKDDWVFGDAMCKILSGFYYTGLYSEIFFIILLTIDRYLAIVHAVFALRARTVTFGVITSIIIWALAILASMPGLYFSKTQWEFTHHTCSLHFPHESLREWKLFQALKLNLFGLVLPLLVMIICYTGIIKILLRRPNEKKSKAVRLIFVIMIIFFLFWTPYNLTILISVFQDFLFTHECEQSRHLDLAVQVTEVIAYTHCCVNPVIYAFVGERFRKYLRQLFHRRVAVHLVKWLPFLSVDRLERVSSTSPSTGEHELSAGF

[6] = molecular target: 5-hydroxytryptamine receptor 1A (Homo sapiens) (UniProt P08908); conditions: Compound concentration 10.0 uM
[7] = molecular target: 5-hydroxytryptamine receptor 1B (Homo sapiens) (UniProt P28222); conditions: Compound concentration 10.0 uM
5-hydroxytryptamine receptor 1B (Homo sapiens), sequence (P28222 whole entry): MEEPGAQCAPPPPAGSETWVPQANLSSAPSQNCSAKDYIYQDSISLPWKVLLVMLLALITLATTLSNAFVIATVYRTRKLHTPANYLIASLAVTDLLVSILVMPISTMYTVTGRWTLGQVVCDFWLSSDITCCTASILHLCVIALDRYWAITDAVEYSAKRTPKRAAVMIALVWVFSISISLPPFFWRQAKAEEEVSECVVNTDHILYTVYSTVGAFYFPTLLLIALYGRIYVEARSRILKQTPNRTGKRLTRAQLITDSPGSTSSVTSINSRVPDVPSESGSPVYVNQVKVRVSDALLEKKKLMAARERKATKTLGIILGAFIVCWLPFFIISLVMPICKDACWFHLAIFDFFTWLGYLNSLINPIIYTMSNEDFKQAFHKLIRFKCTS

[8] = molecular target: 5-hydroxytryptamine receptor 1D (Homo sapiens) (UniProt P28221); conditions: Compound concentration 10.0 uM
5-hydroxytryptamine receptor 1D (Homo sapiens), sequence (P28221 whole entry): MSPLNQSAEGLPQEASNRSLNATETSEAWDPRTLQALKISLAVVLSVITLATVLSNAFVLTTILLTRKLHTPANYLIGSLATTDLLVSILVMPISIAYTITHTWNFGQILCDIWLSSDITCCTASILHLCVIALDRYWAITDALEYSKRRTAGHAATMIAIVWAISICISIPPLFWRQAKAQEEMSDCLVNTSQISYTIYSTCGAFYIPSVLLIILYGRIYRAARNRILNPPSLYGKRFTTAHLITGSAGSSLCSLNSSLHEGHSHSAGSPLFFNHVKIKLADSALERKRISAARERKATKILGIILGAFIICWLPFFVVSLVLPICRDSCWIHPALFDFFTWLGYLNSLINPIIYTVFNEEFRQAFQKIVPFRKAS

[9] = molecular target: 5-hydroxytryptamine receptor 2A (Homo sapiens) (UniProt P28223); conditions: Compound concentration 10.0 uM
[10] = molecular target: 5-hydroxytryptamine receptor 2B (Homo sapiens) (UniProt P41595); conditions: Compound concentration 10.0 uM
[11] = molecular target: 5-hydroxytryptamine receptor 2C (Homo sapiens) (UniProt P28335); conditions: Compound concentration 10.0 uM
[12] = molecular target: 5-hydroxytryptamine receptor 3A (Homo sapiens) (UniProt P46098); conditions: Compound concentration 10.0 uM
[13] = molecular target: 5-hydroxytryptamine receptor 5A (Homo sapiens) (UniProt P47898); conditions: Compound concentration 10.0 uM
[14] = molecular target: 5-hydroxytryptamine receptor 6 (Homo sapiens) (UniProt P50406); conditions: Compound concentration 10.0 uM
[15] = molecular target: D(1A) dopamine receptor (Homo sapiens) (UniProt P21728); conditions: Compound concentration 10.0 uM
[16] = molecular target: D(2) dopamine receptor (Homo sapiens) (UniProt P14416); conditions: Compound concentration 10.0 uM
[17] = molecular target: D(3) dopamine receptor (Homo sapiens) (UniProt P35462); conditions: Compound concentration 10.0 uM
[18] = molecular target: D(4) dopamine receptor (Homo sapiens) (UniProt P21917); conditions: Compound concentration 10.0 uM
[19] = molecular target: D(1B) dopamine receptor (Homo sapiens) (UniProt P21918); conditions: Compound concentration 10.0 uM
[20] = molecular target: T4, Sodium-dependent serotonin transporter (Homo sapiens, UniProt P31645); conditions: Compound concentration 10.0 uM
Target sequence in this assay (P31645 whole entry, looked up): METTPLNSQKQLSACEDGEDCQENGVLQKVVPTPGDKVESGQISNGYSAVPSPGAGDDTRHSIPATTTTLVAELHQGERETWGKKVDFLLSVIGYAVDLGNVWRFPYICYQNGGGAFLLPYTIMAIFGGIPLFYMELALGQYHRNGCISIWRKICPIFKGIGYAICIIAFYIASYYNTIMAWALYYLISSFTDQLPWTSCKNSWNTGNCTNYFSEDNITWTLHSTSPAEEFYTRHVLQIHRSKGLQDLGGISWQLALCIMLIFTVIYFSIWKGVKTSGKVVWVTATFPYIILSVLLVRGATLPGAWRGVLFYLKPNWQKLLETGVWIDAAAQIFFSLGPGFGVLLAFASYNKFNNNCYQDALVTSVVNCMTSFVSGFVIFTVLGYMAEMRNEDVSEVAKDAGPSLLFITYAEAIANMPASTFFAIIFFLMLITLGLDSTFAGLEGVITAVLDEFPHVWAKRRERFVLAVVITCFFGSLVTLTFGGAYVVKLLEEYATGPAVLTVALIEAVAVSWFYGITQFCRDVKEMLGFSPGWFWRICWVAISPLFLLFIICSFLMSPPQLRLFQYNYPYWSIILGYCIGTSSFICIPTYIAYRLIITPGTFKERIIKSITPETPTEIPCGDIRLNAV

[21] = molecular target: Sodium-dependent noradrenaline transporter (Homo sapiens) (UniProt P23975); conditions: Compound concentration 10.0 uM
[22] = molecular target: Sodium-dependent dopamine transporter (Homo sapiens) (UniProt Q01959); conditions: Compound concentration 10.0 uM
[23] = molecular target: Mu-type opioid receptor (Homo sapiens) (UniProt P35372); conditions: Compound concentration 10.0 uM
[24] = molecular target: Delta-type opioid receptor (Homo sapiens) (UniProt P41143); conditions: Compound concentration 10.0 uM
[25] = molecular target: T1, Kappa-type opioid receptor; conditions: Compound concentration 10.0 uM
[26] = molecular target: T5, GABA-A receptor; anion channel (Rattus norvegicus) (UniProt O09028+P15431+P18506+P18508+P19969+P20236+P23574+P23576+P28471+P28473+P30191+P62813+P63079+P63138+Q91ZM7+Q9ES14); conditions: Compound concentration 10.0 uM
[27] = molecular target: Histamine H1 receptor (Homo sapiens) (UniProt P35367); conditions: Compound concentration 10.0 uM
Histamine H1 receptor (Homo sapiens), sequence (P35367 whole entry): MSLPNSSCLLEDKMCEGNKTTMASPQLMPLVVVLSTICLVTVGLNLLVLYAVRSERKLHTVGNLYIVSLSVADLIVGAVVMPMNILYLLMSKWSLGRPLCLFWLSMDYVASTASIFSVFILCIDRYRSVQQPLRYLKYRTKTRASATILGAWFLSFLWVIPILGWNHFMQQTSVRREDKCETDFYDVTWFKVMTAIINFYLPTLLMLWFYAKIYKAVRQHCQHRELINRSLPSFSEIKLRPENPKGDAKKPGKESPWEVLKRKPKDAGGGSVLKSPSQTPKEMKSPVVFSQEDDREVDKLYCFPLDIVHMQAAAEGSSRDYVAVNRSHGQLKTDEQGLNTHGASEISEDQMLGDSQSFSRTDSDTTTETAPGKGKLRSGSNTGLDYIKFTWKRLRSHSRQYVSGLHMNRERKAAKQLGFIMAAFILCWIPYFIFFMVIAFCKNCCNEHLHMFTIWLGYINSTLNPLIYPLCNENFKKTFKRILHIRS

[28] = molecular target: Histamine H2 receptor (Homo sapiens) (UniProt P25021); conditions: Compound concentration 10.0 uM
Histamine H2 receptor (Homo sapiens), sequence (P25021 whole entry): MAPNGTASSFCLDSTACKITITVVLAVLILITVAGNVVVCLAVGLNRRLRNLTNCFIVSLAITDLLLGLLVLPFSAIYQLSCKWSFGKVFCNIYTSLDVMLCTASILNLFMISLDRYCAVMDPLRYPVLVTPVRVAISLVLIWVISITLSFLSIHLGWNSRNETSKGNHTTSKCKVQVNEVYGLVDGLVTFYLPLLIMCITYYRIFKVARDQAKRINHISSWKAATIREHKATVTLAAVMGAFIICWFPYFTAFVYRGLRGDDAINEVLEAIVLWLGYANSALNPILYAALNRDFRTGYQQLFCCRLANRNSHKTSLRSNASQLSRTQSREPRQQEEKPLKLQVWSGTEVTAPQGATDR

[29] = molecular target: Histamine H3 receptor (Homo sapiens) (UniProt Q9Y5N1); conditions: Compound concentration 10.0 uM
[30] = molecular target: Alpha-1A adrenergic receptor (Homo sapiens) (UniProt P35348); conditions: Compound concentration 10.0 uM
Alpha-1A adrenergic receptor (Homo sapiens), sequence (P35348 whole entry): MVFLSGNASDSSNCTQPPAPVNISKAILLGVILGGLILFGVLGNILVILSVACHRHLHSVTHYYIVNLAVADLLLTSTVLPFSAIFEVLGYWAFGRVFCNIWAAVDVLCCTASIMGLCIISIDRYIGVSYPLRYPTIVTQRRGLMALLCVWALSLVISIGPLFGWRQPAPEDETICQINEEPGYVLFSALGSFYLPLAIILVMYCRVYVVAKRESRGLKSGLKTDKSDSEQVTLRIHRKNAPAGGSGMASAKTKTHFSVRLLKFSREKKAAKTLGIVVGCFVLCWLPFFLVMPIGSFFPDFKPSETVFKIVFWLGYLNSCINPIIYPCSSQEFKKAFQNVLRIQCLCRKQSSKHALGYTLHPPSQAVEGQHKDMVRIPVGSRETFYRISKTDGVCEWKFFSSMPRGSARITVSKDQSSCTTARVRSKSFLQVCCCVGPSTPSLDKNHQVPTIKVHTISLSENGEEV

[31] = molecular target: Alpha-2C adrenergic receptor (Homo sapiens) (UniProt P18825); conditions: Compound concentration 10.0 uM
[32] = molecular target: Beta-2 adrenergic receptor (Homo sapiens) (UniProt P07550); conditions: Compound concentration 10.0 uM
[33] = molecular target: Muscarinic acetylcholine receptor M1 (Homo sapiens) (UniProt P11229); conditions: Compound concentration 10.0 uM
[34] = molecular target: Muscarinic acetylcholine receptor M2 (Homo sapiens) (UniProt P08172); conditions: Compound concentration 10.0 uM
Muscarinic acetylcholine receptor M2 (Homo sapiens), sequence (P08172 whole entry): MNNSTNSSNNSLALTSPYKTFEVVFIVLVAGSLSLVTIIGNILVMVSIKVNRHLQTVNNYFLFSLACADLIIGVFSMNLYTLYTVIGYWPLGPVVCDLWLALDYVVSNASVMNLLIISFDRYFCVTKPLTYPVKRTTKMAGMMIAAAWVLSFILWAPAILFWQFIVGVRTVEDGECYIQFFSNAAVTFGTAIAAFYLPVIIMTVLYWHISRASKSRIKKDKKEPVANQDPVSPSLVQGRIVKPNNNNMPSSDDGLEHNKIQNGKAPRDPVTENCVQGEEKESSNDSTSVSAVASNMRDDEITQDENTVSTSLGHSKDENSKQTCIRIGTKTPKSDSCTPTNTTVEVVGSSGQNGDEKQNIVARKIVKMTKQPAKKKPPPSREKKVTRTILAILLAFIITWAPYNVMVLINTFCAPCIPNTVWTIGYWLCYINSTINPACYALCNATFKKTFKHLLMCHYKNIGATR

[35] = molecular target: Muscarinic acetylcholine receptor M3 (Homo sapiens) (UniProt P20309); conditions: Compound concentration 10.0 uM
Muscarinic acetylcholine receptor M3 (Homo sapiens), sequence (P20309 whole entry, looked up): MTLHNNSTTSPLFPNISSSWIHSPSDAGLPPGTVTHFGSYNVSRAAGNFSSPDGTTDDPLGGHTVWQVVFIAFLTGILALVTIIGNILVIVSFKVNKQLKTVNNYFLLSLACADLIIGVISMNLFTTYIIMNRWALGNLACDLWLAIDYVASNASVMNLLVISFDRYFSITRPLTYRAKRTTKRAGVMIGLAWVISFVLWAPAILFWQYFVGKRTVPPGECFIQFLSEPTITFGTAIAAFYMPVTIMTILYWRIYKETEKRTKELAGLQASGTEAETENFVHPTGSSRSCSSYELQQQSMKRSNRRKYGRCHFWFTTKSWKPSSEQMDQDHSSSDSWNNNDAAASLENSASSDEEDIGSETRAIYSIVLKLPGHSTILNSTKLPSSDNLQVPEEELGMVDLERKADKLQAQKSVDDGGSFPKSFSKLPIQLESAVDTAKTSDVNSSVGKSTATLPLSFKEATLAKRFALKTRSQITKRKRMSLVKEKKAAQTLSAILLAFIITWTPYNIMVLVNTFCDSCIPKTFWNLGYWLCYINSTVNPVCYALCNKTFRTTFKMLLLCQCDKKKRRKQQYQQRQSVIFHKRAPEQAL

[36] = molecular target: Muscarinic acetylcholine receptor M4 (Homo sapiens) (UniProt P08173); conditions: Compound concentration 10.0 uM
[37] = molecular target: Muscarinic acetylcholine receptor M5 (Homo sapiens) (UniProt P08912); conditions: Compound concentration 10.0 uM
[38] = molecular target: Beta-3 adrenergic receptor (Homo sapiens) (UniProt P13945); conditions: Compound concentration 10.0 uM
[39] = molecular target: T5, GABA-A receptor; anion channel (Rattus norvegicus); conditions: Compound concentration 10.0 uM; remark: listed apart in the source
Rattus norvegicus = species: Rattus norvegicus; conditions: Compound concentration 10.0 uM
[40] = molecular target: Alpha-1D adrenergic receptor (Homo sapiens) (UniProt P25100); conditions: Compound concentration 10.0 uM
[41] = molecular target: T2, Sigma intracellular receptor 2; conditions: Compound concentration 10.0 uM
[42] = molecular target: T3, Sigma non-opioid intracellular receptor 1; conditions: Compound concentration 10.0 uM
D(4) dopamine receptor = D(4) dopamine receptor (Homo sapiens, UniProt P21917); test: GPCRScan assay: inhibition of D4; parameters: radioligand conc. used [nm] 0.6 – 1.7, parental cells Stable HEK
[43] = molecular target: T4, Sodium-dependent serotonin transporter; test: GPCRScan assay: inhibition of SERT; parameters: radioligand conc. used [nm] 1.5 – 2.0, parental cells stable HEK
[44] = molecular target: Alpha-2B adrenergic receptor (Homo sapiens, UniProt P18089); test: GPCRScan assay: inhibition of Alpha2B; parameters: radioligand conc. used [nm] 1.5 – 2.0, parental cells HEKT
[45] = molecular target: Histamine H4 receptor (Homo sapiens) (UniProt Q9H3N8); conditions: Compound concentration 10.0 uM
[46] = molecular target: Alpha-1B adrenergic receptor (Homo sapiens) (UniProt P35368); conditions: Compound concentration 10.0 uM
[47] = molecular target: Alpha-2A adrenergic receptor (Homo sapiens) (UniProt P08913); conditions: Compound concentration 10.0 uM
[48] = molecular target: Beta-1 adrenergic receptor (Homo sapiens) (UniProt P08588); conditions: Compound concentration 10.0 uM

T1 sequence (P41145 whole entry): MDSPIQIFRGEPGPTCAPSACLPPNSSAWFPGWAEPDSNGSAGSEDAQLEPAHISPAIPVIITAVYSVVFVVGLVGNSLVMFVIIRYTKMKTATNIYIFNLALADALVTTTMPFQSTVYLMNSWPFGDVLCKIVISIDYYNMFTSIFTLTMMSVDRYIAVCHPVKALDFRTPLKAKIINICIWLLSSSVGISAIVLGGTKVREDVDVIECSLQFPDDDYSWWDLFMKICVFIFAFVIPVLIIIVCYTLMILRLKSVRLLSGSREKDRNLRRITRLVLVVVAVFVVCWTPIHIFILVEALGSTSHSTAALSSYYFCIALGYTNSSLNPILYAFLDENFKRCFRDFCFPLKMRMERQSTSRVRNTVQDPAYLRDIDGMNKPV

SMILES: CCOc1cc(N2C3COCC2CN(C(=O)[C@H]2C[C@H](O)CN2c2ccc(Cl)cc2)C3)ccc1Cl [BAY-3153]
- Ki [1]: 3010 nM
- Ki [2]: 1810 nM
- pKi [2]: 5.74
- Ki [3]: 1480 nM
- Ki [4]: 1830 nM
- IC50 [5]: 3 nM (active)
- inhibition [6]: -9.03%
- inhibition [7]: -2.86%
- inhibition [8]: -2.08%
- inhibition [9]: 6.74%
- inhibition [10]: 10.5%
- inhibition [11]: 4.08%
- inhibition [12]: -1.97%
- inhibition [13]: 1.7%
- inhibition [14]: -8.16%
- inhibition [15]: 40.3%
- inhibition [16]: 7.26%
- inhibition [17]: 1.58%
- inhibition [18]: 15.5%
- inhibition [19]: 2.54%
- inhibition [20]: 33.4%
- inhibition [21]: 1.24%
- inhibition [22]: 3.92%
- inhibition [23]: 5.82%
- inhibition [24]: 10.3%
- inhibition [25]: 53.6%
- inhibition [26]: 18.6%
- inhibition [27]: 11.2%
- inhibition [28]: 27.7%
- inhibition [29]: 17.3%
- inhibition [30]: 17%
- inhibition [31]: 2.17%
- inhibition [32]: -4.63%
- inhibition [33]: -5.67%
- inhibition [34]: 8.64%
- inhibition [35]: 8.61%
- inhibition [36]: -3.29%
- inhibition [37]: -4.29%
- inhibition [38]: -5.38%
- inhibition [39]: -6.17%
- inhibition (Rattus norvegicus): 54.2%
- inhibition [40]: 7.09%
- inhibition [41]: 83.6%
- inhibition [42]: 85%

SMILES: O=C([C@H]1C[C@H](O)CN1c1ccc(Cl)cc1)N1CC2COCC(C1)N2Cc1ccc(Cl)cc1 [BAY-173]
- Ki (D(4) dopamine receptor): 10000 nM
- Ki [43]: 1460 nM
- Ki [44]: 10000 nM
- Ki [3]: 2170 nM
- Ki [4]: 8250 nM
- IC50 [5]: 1200 nM (not active)
- inhibition [7]: -6.45%
- inhibition [8]: -7.5%
- inhibition [9]: 7.31%
- inhibition [10]: 14.8%
- inhibition [11]: -2.02%
- inhibition [12]: -7.03%
- inhibition [13]: -1.82%
- inhibition [14]: 5.38%
- inhibition [17]: 2.75%
- inhibition [18]: 51.5%
- inhibition [19]: 6.84%
- inhibition [20]: 70.3%
- inhibition [21]: -4.52%
- inhibition [23]: 4.45%
- inhibition [25]: 18.7%
- inhibition [26]: 20%
- inhibition [27]: 14.3%
- inhibition [28]: 8.13%
- inhibition [29]: 9.39%
- inhibition [45]: -3.31%
- inhibition [30]: 7.02%
- inhibition [46]: 0.94%
- inhibition [47]: 11.3%
- inhibition [31]: 14.4%
- inhibition [48]: 6.12%
- inhibition [32]: -7.55%
- inhibition [33]: -3.85%
- inhibition [34]: 1.89%
- inhibition [35]: 24.1%
- inhibition [36]: -6.12%
- inhibition [37]: -1.65%
- inhibition [38]: -9.84%
- inhibition [39]: 0.65%
- inhibition (Rattus norvegicus): -8.33%
- inhibition [40]: -7.34%
- inhibition [41]: 76.5%
- inhibition [42]: 69.5%
